ChEMBL document CHEMBL5532697, “Imidazopyrimidine: from a relatively exotic scaffold to an evolving structural motif in drug discovery” (RSC Med Chem, 2024)
≈ marks a conversion by molar mass, not a printed value. Values belong to the molecule of their own block, whether it stands above or below them.

What was measured:
Albumin = Albumin (Homo sapiens, UniProt P02768); assay: Inhibition of Albumin (unknown origin) denaturation at 100 uM relative to control
[1] = molecular target: cAMP and cAMP-inhibited cGMP 3',5'-cyclic phosphodiesterase 10A (Homo sapiens, UniProt Q9Y233); assay: Inhibition of full length human PDE10A incubated for 1 hr by topcount Scintillation plate reader analysis
[2] = Cytotoxicity against human HFF cells assessed as cell growth inhibition by celltiter-glo assay; type: toxicity, cell-based
BK polyomavirus = assay: Antiviral activity against BK polyomavirus MM infected in human HFF cells assessed as reduction in viral growth incubated for 7 days; type: functional, organism-based; settings: Betapolyomavirus hominis, 168 h
A549 [3] = assay: Antiproliferative activity against human A549 cells assessed as inhibition of cell growth by MTT assay; type: functional, cell-based
MCF7 = assay: Antiproliferative activity against human MCF7 cells assessed as inhibition of cell growth incubated for 48 hrs by alamarblue staining based assay; type: functional; settings: MCF7, 48 h
COLO 205 = assay: Antiproliferative activity against human COLO 205 cells assessed as inhibition of cell growth incubated for 48 hrs by alamarblue staining based assay; type: functional; settings: COLO 205, 48 h
A549 [4] = assay: Antiproliferative activity against human A549 cells assessed as inhibition of cell growth incubated for 48 hrs by alamarblue staining based assay; type: functional; settings: A549, 48 h
Pyruvate kinase PKM = Pyruvate kinase PKM (Homo sapiens, UniProt P14618); assay: Inhibition of recombinant PKM2 (unknown origin)
Kluyveromyces marxianus [5] = assay: Antifungal activity against Candida keyfer […] 410004 assessed as inhibition of fungal growth incubated for 48 hrs; type: functional
Neurospora crassa = assay: Antifungal activity against Neurospora crassa assessed as inhibition of fungal growth incubated for 48 hrs; type: functional
Aspergillus niger = assay: Antifungal activity against Aspergillus niger assessed as inhibition of fungal growth incubated for 48 hrs; type: functional
Candida albicans [6] = assay: Antifungal activity against Candida albicans NCPF 400034 assessed as inhibition of fungal growth incubated for 48 hrs; type: functional
Kluyveromyces marxianus [7] = assay: Synergetic antifungal activity against Candida keyfer […] 410004 assessed as fractional inhibitory concentration index incubated for 24 hrs in the presence of amphotericin B by checkerboard microdilution method; type: functional
Cryptococcus neoformans = assay: Antifungal activity against Cryptococcus neoformans NCPF 250316 assessed as inhibition of fungal growth incubated for 48 hrs; type: functional
[8] = test system: Meyerozyma guilliermondii; assay: Antifungal activity against Meyerozyma guilliermondii assessed as reduction in fungal growth incubated for 24 hrs by CLSI based assay; type: functional
Pichia kudriavzevii = assay: Antifungal activity against Candida krusei ATCC 6358 assessed as reduction in fungal growth incubated for 24 hrs by CLSI based assay; type: functional
Nakaseomyces glabratus = assay: Antifungal activity against Candida glabrata CBS138 assessed as reduction in fungal growth incubated for 24 hrs by CLSI based assay; type: functional
Candida tropicalis = assay: Antifungal activity against Candida tropicalis MYA-3404 assessed as reduction in fungal growth incubated for 24 hrs by CLSI based assay; type: functional
Candida dubliniensis = assay: Antifungal activity against Candida dubliniensis CD36 assessed as reduction in fungal growth incubated for 24 hrs by CLSI based assay; type: functional
Kluyveromyces marxianus [9] = assay: Antifungal activity against Candida kefyr assessed as reduction in fungal growth incubated for 24 hrs by CLSI based assay; type: functional
Candida albicans [10] = assay: Antifungal activity against Candida albicans ATCC 10231 assessed as reduction in fungal growth incubated for 24 hrs by CLSI based assay; type: functional
Aorta = assay: Vasorelaxant activity in rabbit aorta assessed as inhibition of phenylephrine-induced contraction; type: functional, tissue-based; settings: Oryctolagus cuniculus

cAMP and cAMP-inhibited cGMP 3',5'-cyclic phosphodiesterase 10A, sequence (Q9Y233 whole entry): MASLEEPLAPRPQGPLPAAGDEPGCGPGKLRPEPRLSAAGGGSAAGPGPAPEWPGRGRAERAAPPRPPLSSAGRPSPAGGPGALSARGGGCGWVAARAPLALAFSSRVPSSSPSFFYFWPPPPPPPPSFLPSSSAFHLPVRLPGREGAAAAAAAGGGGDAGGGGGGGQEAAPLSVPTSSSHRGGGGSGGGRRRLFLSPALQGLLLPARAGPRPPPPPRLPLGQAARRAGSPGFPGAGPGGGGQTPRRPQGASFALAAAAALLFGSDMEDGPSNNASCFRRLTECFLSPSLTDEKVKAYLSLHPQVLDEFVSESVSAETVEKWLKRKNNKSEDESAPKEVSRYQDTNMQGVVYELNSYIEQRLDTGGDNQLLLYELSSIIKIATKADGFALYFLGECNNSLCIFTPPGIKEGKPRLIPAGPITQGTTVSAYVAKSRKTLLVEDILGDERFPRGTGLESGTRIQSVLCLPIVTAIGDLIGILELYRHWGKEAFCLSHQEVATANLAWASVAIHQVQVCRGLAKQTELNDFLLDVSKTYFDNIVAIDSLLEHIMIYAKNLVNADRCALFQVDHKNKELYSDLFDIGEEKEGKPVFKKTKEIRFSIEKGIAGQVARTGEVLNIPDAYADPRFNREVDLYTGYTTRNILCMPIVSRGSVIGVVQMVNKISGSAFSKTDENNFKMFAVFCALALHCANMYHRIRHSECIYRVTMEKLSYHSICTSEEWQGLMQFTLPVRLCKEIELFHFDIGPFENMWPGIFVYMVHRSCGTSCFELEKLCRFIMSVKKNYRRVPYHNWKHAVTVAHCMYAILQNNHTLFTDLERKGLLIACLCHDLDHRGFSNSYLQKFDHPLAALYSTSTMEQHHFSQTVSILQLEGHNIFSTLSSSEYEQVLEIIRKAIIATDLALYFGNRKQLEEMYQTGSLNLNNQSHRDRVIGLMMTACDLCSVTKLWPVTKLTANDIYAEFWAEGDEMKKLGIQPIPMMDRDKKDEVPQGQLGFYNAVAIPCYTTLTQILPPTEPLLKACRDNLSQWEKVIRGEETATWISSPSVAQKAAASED
Albumin, sequence (P02768 whole entry): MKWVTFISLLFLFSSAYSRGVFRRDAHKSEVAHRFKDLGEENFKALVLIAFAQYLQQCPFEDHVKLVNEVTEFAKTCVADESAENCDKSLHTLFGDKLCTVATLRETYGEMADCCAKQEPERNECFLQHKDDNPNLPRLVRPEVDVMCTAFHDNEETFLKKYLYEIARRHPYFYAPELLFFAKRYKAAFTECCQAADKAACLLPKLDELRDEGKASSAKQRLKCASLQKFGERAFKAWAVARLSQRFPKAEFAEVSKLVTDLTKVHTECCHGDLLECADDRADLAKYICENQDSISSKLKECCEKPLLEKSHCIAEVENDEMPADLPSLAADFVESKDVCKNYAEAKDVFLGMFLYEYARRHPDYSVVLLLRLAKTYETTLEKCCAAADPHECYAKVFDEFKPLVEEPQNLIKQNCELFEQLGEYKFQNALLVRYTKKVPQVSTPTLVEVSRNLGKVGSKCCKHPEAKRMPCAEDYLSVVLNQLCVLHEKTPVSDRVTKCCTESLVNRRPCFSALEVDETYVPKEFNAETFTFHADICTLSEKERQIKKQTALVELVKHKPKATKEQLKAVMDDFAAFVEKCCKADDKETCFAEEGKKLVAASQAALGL
Pyruvate kinase PKM, sequence (P14618 whole entry): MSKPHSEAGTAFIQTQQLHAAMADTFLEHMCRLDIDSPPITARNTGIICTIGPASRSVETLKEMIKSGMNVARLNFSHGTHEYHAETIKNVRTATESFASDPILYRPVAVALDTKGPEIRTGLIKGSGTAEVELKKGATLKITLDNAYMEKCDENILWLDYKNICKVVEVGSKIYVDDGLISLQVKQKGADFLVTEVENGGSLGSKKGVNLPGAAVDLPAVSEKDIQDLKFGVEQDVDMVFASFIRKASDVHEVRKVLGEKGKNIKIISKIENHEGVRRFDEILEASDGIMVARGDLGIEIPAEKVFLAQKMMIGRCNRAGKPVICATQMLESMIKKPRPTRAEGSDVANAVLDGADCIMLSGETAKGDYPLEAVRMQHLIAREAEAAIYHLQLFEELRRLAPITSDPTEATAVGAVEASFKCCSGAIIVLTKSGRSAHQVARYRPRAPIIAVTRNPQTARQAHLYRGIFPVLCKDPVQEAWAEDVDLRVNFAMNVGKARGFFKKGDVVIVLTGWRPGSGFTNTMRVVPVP

Structure (SMILES): COc1ccc(-c2cn3cccnc3n2)cc1
- inhibition at 100 µM (Albumin): 40.9%

Structure (SMILES): Cc1c(C(=O)N2CCCC2)cnn1C(=O)Nc1ccn2cc(-c3ccccc3)nc2n1
- IC50 [1]: 0.003 µM

Structure (SMILES): Cc1c(C(=O)NCc2c[nH]cn2)cnn1C(=O)Nc1ccn2cc(-c3ccccc3)nc2n1
- IC50 [1]: 0.002 µM

Structure (SMILES): CS(=O)(=O)C1=CN(Cc2ccccc2)C(=O)N2CCN=C12
- CC50 [2]: > 150 µM
- EC50 (BK polyomavirus): 0.66 µM

Structure (SMILES): Cc1c(C(=O)N2CCC2)cnn1C(=O)Nc1ccn2cc(-c3ccc(Cl)s3)nc2n1
- IC50 [1]: 0.004 µM

Structure (SMILES): Cc1ccc(S(=O)(=O)C2=CN(c3ccccc3)C(=O)N3CCN=C23)cc1
- CC50 [2]: > 150 µM
- EC50 (BK polyomavirus): 93 µM

Structure (SMILES): COc1ccccc1N1CCN(CC(=O)c2cnc3ncccn23)CC1
- IC50 (MCF7): 12.2 µM
- IC50 (COLO 205): 64.8 µM
- IC50 (A549 [4]): 26.2 µM
- IC50 (Pyruvate kinase PKM): 0.027 µM

Structure (SMILES): O=C(CN1CCN(c2ccccc2)CC1)c1cnc2ncccn12
- IC50 (MCF7): 13.5 µM
- IC50 (COLO 205): 73.5 µM
- IC50 (A549 [4]): 28.5 µM
- IC50 (Pyruvate kinase PKM): 0.05 µM

Structure (SMILES): c1ccc([Se]Cc2cn3cccnc3n2)cc1
- MIC (Kluyveromyces marxianus [5]): > 36 µg/mL
- MIC (Neurospora crassa): 18 µg/mL (≈ 62.5 µM)
- MIC (Aspergillus niger): > 36 µg/mL
- MIC (Candida albicans [6]): 36 µg/mL (≈ 125 µM)
- fractional inhibitory concentration index (FICI) (Kluyveromyces marxianus [7]): 3.6
- MIC (Cryptococcus neoformans): > 36 µg/mL

Structure (SMILES): Cc1c(C(=O)NCc2cocn2)cnn1C(=O)Nc1ccn2cc(-c3ccccc3)nc2n1
- IC50 [1]: 0.001 µM

Structure (SMILES): O=C(CN1CCN(c2ccc(Cl)cc2)CC1)c1cnc2ncccn12
- IC50 (MCF7): 12.9 µM
- IC50 (COLO 205): 28 µM
- IC50 (A549 [4]): 37.5 µM
- IC50 (Pyruvate kinase PKM): 0.79 µM

Structure (SMILES): Nc1cc(N)nc(-c2nc(Cc3ccccc3F)c3ncccn23)n1
- IC50 (Aorta): 1.05 µM

Structure (SMILES): Cc1ccc([Se]Cc2cn3cccnc3n2)cc1
- MIC (Kluyveromyces marxianus [5]): 18.9 µg/mL (≈ 62.4 µM)
- MIC (Neurospora crassa): 18.9 µg/mL (≈ 62.4 µM)
- MIC (Aspergillus niger): > 37.8 µg/mL
- MIC (Candida albicans [6]): > 37.8 µg/mL
- MIC (Cryptococcus neoformans): > 36 µg/mL

Structure (SMILES): c1ccc(-c2ccc(-c3cn4cccnc4n3)cc2)cc1
- inhibition at 100 µM (Albumin): 96.4%

Now from value to molecule:

- inhibition at 100 µM (Albumin): 41.7%
Structure (SMILES): Clc1ccc(-c2cn3cccnc3n2)cc1

- inhibition at 100 µM (Albumin): 82.9%
Structure (SMILES): Cc1ccc(-c2cn3cccnc3n2)cc1

- IC50 (A549 [3]): 6.4 µM
Structure (SMILES): CC(=O)NC1(Cc2ccc(O)cc2)C(=O)N=C2N=CC=CN21 (centres undefined)

- IC50 (A549 [3]): 2.6 µM
Structure (SMILES): CC(=O)NC1(Cc2cccc3ccccc23)C(=O)N=C2N=CC=CN21 (centres undefined)

- IC50 (MCF7): 11.8 µM
- IC50 (COLO 205): 104 µM
- IC50 (A549 [4]): 35.4 µM
- IC50 (Pyruvate kinase PKM): 0.73 µM
Structure (SMILES): CC(=O)c1ccc(C(=O)N2CCN(CC(=O)c3cnc4ncccn34)CC2)cc1

- MIC [8]: 0.062 µg/mL (≈ 0.241 µM)
- MIC (Pichia kudriavzevii): 0.5 µg/mL (≈ 1.94 µM)
- MIC (Nakaseomyces glabratus): 1 µg/mL (≈ 3.88 µM)
- MIC (Candida tropicalis): 0.031 µg/mL (≈ 0.12 µM)
- MIC (Candida dubliniensis): 0.5 µg/mL (≈ 1.94 µM)
- MIC (Kluyveromyces marxianus [9]): 0.125 µg/mL (≈ 0.485 µM)
- MIC (Candida albicans [10]): 0.25 µg/mL (≈ 0.97 µM)
Structure (SMILES): O=C(c1ccc(Cl)cc1)c1cnc2ncccn12

- IC50 (A549 [3]): 2.1 µM
Structure (SMILES): CC(=O)NC1(Cc2ccc(Br)cc2)C(=O)N=C2N=CC=CN21 (centres undefined)

- MIC [8]: 0.25 µg/mL (≈ 1.04 µM)
- MIC (Pichia kudriavzevii): 0.5 µg/mL (≈ 2.07 µM)
- MIC (Nakaseomyces glabratus): 0.031 µg/mL (≈ 0.129 µM)
- MIC (Candida tropicalis): 0.25 µg/mL (≈ 1.04 µM)
- MIC (Candida dubliniensis): 0.5 µg/mL (≈ 2.07 µM)
- MIC (Kluyveromyces marxianus [9]): 0.125 µg/mL (≈ 0.518 µM)
- MIC (Candida albicans [10]): 0.062 µg/mL (≈ 0.257 µM)
Structure (SMILES): O=C(c1ccc(F)cc1)c1cnc2ncccn12

- MIC [8]: 0.031 µg/mL (≈ 0.125 µM)
- MIC (Pichia kudriavzevii): 0.25 µg/mL (≈ 1.01 µM)
- MIC (Nakaseomyces glabratus): 0.065 µg/mL (≈ 0.262 µM)
- MIC (Candida tropicalis): 0.062 µg/mL (≈ 0.25 µM)
- MIC (Candida dubliniensis): 0.062 µg/mL (≈ 0.25 µM)
- MIC (Kluyveromyces marxianus [9]): 0.125 µg/mL (≈ 0.504 µM)
- MIC (Candida albicans [10]): 0.25 µg/mL (≈ 1.01 µM)
Structure (SMILES): N#Cc1ccc(C(=O)c2cnc3ncccn23)cc1
